Measurements: EP0364941A1, “Branched-chain alkyl esters of 2-(4-(2-piperidino ethoxy)benzoyl)benzoic acid, processes for their preparation and their use as spasmolytic agents” (HOECHST AKTIENGESELLSCHAFT, priority 1988, dated 1990)

What was measured:
Format in all cases: in vivo
small intestine [1] = assay: Motility of the small intestine in the conscious dog; settings: for Area under the contraction curve, Postdrug 10 min: 10 min postdrug; for Area under the contraction curve, Postdrug 10 min / Area under the contraction curve, Postdrug 20 min / Area under the contraction curve, Postdrug 30 min / Area under the contraction curve, Postdrug 40 min / Area under the contraction curve, Postdrug 50 min / Area under the contraction curve, Postdrug 60 min / Area under the contraction curve, Predrug -20 - 0: phase I and II; for Area under the contraction curve, Postdrug 20 min: 20 min postdrug; for Area under the contraction curve, Postdrug 30 min: 30 min postdrug; for Area under the contraction curve, Postdrug 40 min: 40 min postdrug; for Area under the contraction curve, Postdrug 50 min: 50 min postdrug; for Area under the contraction curve, Postdrug 60 min: 60 min postdrug; for Inhibition Maximal / Inhibition Mean / ED50: phase I+II activity; for Area under the contraction curve, Predrug -20 - 0: predrug baseline -20 - 0 min; for Duration of action: when postdrug values reached 90 % or more of predrug values; for ED50: Canis lupus familiaris, iv, conscious dog, read-out: intravenous IC₅₀-values determined from maximal inhibition
From the text: Male dogs (THG Tierhandelsgesellschaft Rodenbach, Hoe:BEAK (Beagle)) weighing 15 - 20 kg were used in all experiments. At least 4 weeks prior to the experiment the dogs had been equipped with miniaturized strain gage force transducers (T1-T3) (2x4 mm), sutured onto the gut at the locations mentioned below. The cables of the transducers were embedded into a cannula which carried the plug for external electric connection. This stainless steel cannula was implanted into the abdominal wall, close below the costal arch. Each transducer was connected to a measuring bridge. The signals were on line stored using a HP 9835 A computer, allowing later analysis of the data. • T1 : Proximal jejunum • T2 : Distal jejunum • T3 : Ileum
(§1) 18 hours prior to the experiment food was withdrawn from the animals, water ad libidum. All experiments started between 08:00 and 09:00 am.
The following motility parameters were determined: The integral under the […] at 10 min intervals (mNx10min) as an index of phase I + II activity. The duration of drug action (min.) The duration of the interdigestive migrating complex (IMC) (min) as a measure of phase III activity.
Test Compound II was given at doses of 0.2 and 0.5 mg/kg i.v. or 5 mg/kg i.g., dissolved in saline, in a volume of 1 ml/kg (i.v.) or 2 ml/kg (i.g.), n = 3 - 6. Control n = 26.
Buscopan was given at doses of 0.3 and 1 mg/kg i.v., dissolved in saline, in a volume of 1 ml/kg, n = 4 - 6. Pitofenone was given at doses of 1 mg/kg i.v., dissolved in saline, in a volume of 1 ml/kg, n = 8.
ID₅₀-values were determined graphically.

large Bowel = assay: Motility of the large bowel (colonic motor complex) in conscious dogs
From the text: Male dogs (THG Tierhandelsgesellschaft Rodenbach, Hoe:BEAK (Beagle)) weighing 15 - 20 kg were used in all experiments.
At least 4 weeks prior the experiment the dogs had been equipped with miniaturised strain gage force transducers (T1-T2) (2x4mm), sutured onto the gut at the locations mentioned below. The cables of the transducers were embedded into a cannula which carried the plug for external electric connection. This stainless steel cannula was implanted into the abdominal wall, close below the costal arch. Each transducer was connected to a measuring bridge. The signals were on line stored using a HP 9835 A computer, allowing later analysis of the data. • T1 : Colon ascendens 10 cm aborafrom the ileoceval valve (ICV) • T2 : Colon transversum 25 cm aborad from the ICV
as §1
The following parameters were determined: The duration of the cycle (min) The duration of the colonic motor complex (CMC) (min) The maximal height of the concentrations (AU: arbitrary units)
Data from the two recording sites (T1-T2) were pooled. […]
For detection of significant differences (p < 0.05) the unpaired t-test was used. Only significant differences were indicated by *.

small intestine [2] = assay: Antispasmodic activity in anaesthetized dog (carbachol or acetylcholine induced intestinal contractions); settings: anaesthetised dog
Protocol: Male mongrel dogs of weight range 10 to 15 kg were anaesthetised with pentobarbitone sodium (35 mg/ kg,i.v.). Slow i.v. infusion of pentobarbitone (5 mg/kg/hour) was given for maintenance anaesthesia. The endotracheal tube was inserted to facilitate spontaneous breathing. Both femoral artery and vein were cannulated respectively for recording blood pressure and administering drugs. After laparotomy, a small portion of small intestine distal to duodenum was isolated and saline filled balloon inserted and the opening was sutured. A fine polyethylene cannula was then inserted into the mesenteric artery which supplies to the area of intestine containing balloon for injection of carbachol or acetylcholine. A Statham pressure transducer was then attached to balloon cannula for recording both circular and longitudinal muscle contractions. All the parameters were recorded on 4 channel Nihon-Kohden recorder. The intestinal contractions were recorded after administering a standard dose of carbachol or acetylcholine (0.5 to 3 µg). Test compounds I and II were given at different doses 3,10 and 20 mg/kg intra-duodenally and spasmolytic activity was assessed at various time intervals. Anti-spasmodic activity was assessed by calculating percent reduction in agonist induced contractions and also noting onset and duration of activity. The test compounds were dissolved in distilled water (1% soln.). Table 3 Test compounds I and II were given at different doses (10, 30, 100, 300 and 1000 µg/kg) intravenously and spasmolytic activity was assessed at different time intervals. Anti-spasmodic activity was assessed by calculating percent reduction in agonist induced contractions. The ID₅₀ value was calculated from the dose response curve.

small intestine [3] = assay: Gastrointestinal propulsion (charcoal transport) in mice
Protocol: Ref.: J.M.A. Zwagemakers and V. Claassen, Arzneim-Forsch/-Drug Res. 30 (II) Nr.9, p.1517 (1980).
The test compounds I and II were given orally by gavage in a range of 10 to 100 mg/kg doses 30 min before charcoal suspension (0.2 ml/animal, 10% charcoal in 5% gum acacia) in 18 hrs fasted mice (male or female, weight range 18 to 25 g). 30 min after administration of charcoal animals were killed and the extent of charcoal propulsion in the small intestine was measured. The inhibitory activity of test compound on charcoal transport was assessed as percent inhibition compared to length of intestine. For control group 10 ml/kg of saline was given.

## CCCC[N+]1(C)[C@@H]2C[C@@H](OC(=O)[C@H](CO)c3ccccc3)C[C@H]1[C@@H]1O[C@@H]12 (stereo partly shown) [Buscopan]
Small intestine [1]; 0.3 mg/kg i.v.
  Area under the contraction curve, Postdrug 10 min: 1.78 mN x 10 min
  Area under the contraction curve, Postdrug 20 min: 1.74 mN x 10 min
  Area under the contraction curve, Postdrug 30 min: 2.17 mN x 10 min
  Area under the contraction curve, Postdrug 40 min: 2.15 mN x 10 min
  Area under the contraction curve, Postdrug 50 min: 1.80 mN x 10 min
  Area under the contraction curve, Postdrug 60 min: 1.60 mN x 10 min
  Inhibition Maximal: 29%
  Inhibition Mean: 23 ± 6%
  Area under the contraction curve, Predrug -20 - 0: 2.09 mN x 10 min
  Duration of action: 20 min
Small intestine [1]; 1 mg/kg i.v.
  Area under the contraction curve, Postdrug 10 min: 0.85 mN x 10 min
  Area under the contraction curve, Postdrug 20 min: 0.86 mN x 10 min
  Area under the contraction curve, Postdrug 30 min: 1.23 mN x 10 min
  Area under the contraction curve, Postdrug 40 min: 2.03 mN x 10 min
  Area under the contraction curve, Postdrug 50 min: 2.09 mN x 10 min
  Area under the contraction curve, Postdrug 60 min: 1.99 mN x 10 min
  Inhibition Maximal: 58%
  Inhibition Mean: 52 ± 6%
  Area under the contraction curve, Predrug -20 - 0: 2.03 mN x 10 min
  Duration of action: 30 min
Small intestine [1]
  ED50: 0.6 mg/kg
Large Bowel; 3 mg/kg intragastrically
  Duration CMC: 6 ± 4 min
  Duration Cycle: 35 ± 19 min
  Max.heigth of CMC: 35±17 AU
Large Bowel; 10 mg/kg intragastrically
  Duration CMC: 5 ± 1 min
  Duration Cycle: 32 ± 5 min
  Max.heigth of CMC: 35±10 AU
Large Bowel; 3 and 10 mg/kg i.g.
  effect on colonic motility: no effect

## COC(=O)c1ccccc1C(=O)c1ccc(OCCN2CCCCC2)cc1.Cl [Test Compound I, Methyl-2-[4-(2-piperidino-ethoxy)-benzoyl]-benzoate hydrochloride]
Small intestine [2]; 20 mg/kg intra-duodenal
  Duration: 40 min
  On-set: 20 min
  Percent Inhibition: 63%
Small intestine [2]; Canis lupus familiaris, iv, read-out: ID₅₀
  ED50: 0.14 mg/kg
Small intestine [2]; intravenous administration
  Duration of action: 10 to 30 min
Small intestine [3]; 60 mg/kg p.o.
  Percent Inhibition: 24.0 ± 3.0%
Small intestine [3]; 100 mg/kg p.o.
  Percent Inhibition: 30.0 ± 4.3%
Small intestine [1]; 1 mg/kg i.v.
  Area under the contraction curve, Postdrug 10 min: 1.58 mN x 10 min
  Area under the contraction curve, Postdrug 20 min: 2.01 mN x 10 min
  Area under the contraction curve, Postdrug 30 min: 2.59 mN x 10 min
  Area under the contraction curve, Postdrug 40 min: 2.29 mN x 10 min
  Area under the contraction curve, Postdrug 50 min: 3.16 mN x 10 min
  Area under the contraction curve, Postdrug 60 min: 3.64 mN x 10 min
  Inhibition Maximal: 47%
  Inhibition Mean: 29 ± 7%
  Area under the contraction curve, Predrug -20 - 0: 2.96 mN x 10 min
  Duration of action: 40 min
Small intestine [1]
  ED50: 1 mg/kg
